Measured values from patent publication US10689363B2 (Merck Patent GmbH, priority 2017, dated 2020).
Where two headings read alike, the source gives them in different places.

Tests used:
[1] = Thermodynamic solubility (24 h, 37° C.) in FaSSIF medium or USP Phosphate buffer; format: physicochemical; conditions: 24 h; for Thermodynamic solubility FaSSIF pH 6.5: FaSSIF pH 6.5, 37° C.; for Thermodynamic solubility PBS buffer 7.4: USP Phosphate buffer pH 7.4, 37° C.
[2] = Mini-dissolution in FaSSIF / FeSSIF medium at 37° C.; format: physicochemical; conditions: for Dissolution levels in FaSSIF pH 6.5: FaSSIF pH 6.5, 37° C.; for Dissolution levels in FeSSIF pH 5.0: FeSSIF pH 5.0, 37° C.
Experimental: All dispersions were agitated at 37° C. for up to 2 hours. At defined time intervals (30 min. 60 min, 120 min), sample aliquots of homogeneous dispersions were withdrawn by a syringe, and filtrated via syringe filter adapters (PTFE, 0.45 μm).

[3] = Water Vapour Sorption isotherm (25° C., DVS-Intrinsic), hygroscopicity acc. to Ph. Eur. 5.11.; format: physicochemical; conditions: for water uptake levels: 25° C.
Experimental: (based on multiple measurements on different samples of form A2). […] DSC scan of form A2 was acquired on a Mettler-Toledo DSC 821 with a heating rate of 50 K/min, using nitrogen purge gas at 50 mL/min. TGA scan of form A2 was acquired on a Mettler-Toledo TGA 851 with a heating rate of 5 K/min, using nitrogen purge gas at 50 mL/min. […] Eur. Criteria (section 5.11.). Water Vapour Sorption isotherm was acquired on a DVS-Intrinsic system from SMS.
(based on multiple measurements on different samples of form NF5). […] Eur. Criteria (section 5.11.). […] Water Vapour Sorption isotherm was acquired on a DVS-Intrinsic system from SMS.
(based on multiple measurements on one sample of form NF6). […] Eur. Criteria (section 5.11.). […] Water Vapour Sorption isotherm was acquired on a DVS-Intrinsic system from SMS.
Eur. Criteria (section 5.11.). […] Water Vapour Sorption isotherm was acquired on a DVS-Intrinsic system from SMS.
Other physical properties of form Fumarate-NF1 include the following: ^1H-NMR spectroscopic data reveal a API:Fumarate molar ratio of 1:1. […] DSC scan of form Fumarate-NF1 was acquired on a Mettler-Toledo DSC 821 with a heating rate of 5 K/min, using nitrogen purge gas at 50 mL/min. TGA scan of form Fumarate-NF1 was acquired on a Mettler-Toledo TGA 851 with a heating rate of 5 K/min, using nitrogen purge gas at 50 mL/min. […] Eur. Criteria (section 5.11.). […] Water Vapour Sorption isotherm was acquired on a DVS-Intrinsic system from SMS.
Other physical properties of form Maleate-NF1 include the following: ^1H-NMR spectroscopic data reveal a API:Maleate molar ratio of 1:1. […] DSC scan of form Maleate-NF1 was acquired on a Mettler-Toledo DSC 821 with a heating rate of 5 K/min, using nitrogen purge gas at 50 mL/min. TGA scan of form Maleate-NF1 was acquired on a Mettler-Toledo TGA 851 with a heating rate of 5 K/min, using nitrogen purge gas at 50 mL/min. […] Form Maleate-NF1 can be classified as non-hygroscopic according to Ph. Eur. Criteria (section 5.11.). […] Water Vapour Sorption isotherm was acquired on a DVS-Intrinsic system from SMS.
Other physical properties of form Citrate-NF1 include the following: ^1H-NMR spectroscopic data reveal a API:Citrate molar ratio of 1:1. […] DSC scan of form Citrate-NF1 was acquired on a Mettler-Toledo DSC 821 with a heating rate of 5 K/min, using nitrogen purge gas at 50 mL/min. TGA scan of form Citrate-NF1 was acquired on a Mettler-Toledo TGA 851 with a heating rate of 5 K/min, using nitrogen purge gas at 50 mL/min. […] Eur. Criteria (section 5.11.). […] Water Vapour Sorption isotherm was acquired on a DVS-Intrinsic system from SMS.
(based on multiple measurements on different samples of form A1). […] DSC scan of form A1 was acquired on a Mettler-Toledo DSC 821 with a heating rate of 50 K/min, using nitrogen purge gas at 50 mL/min. TGA scan of form A1 was acquired on a Mettler-Toledo TGA 851 with a heating rate of 5 K/min, using nitrogen purge gas at 50 mL/min. […] Eur. Criteria (section 5.11.). […] Water Vapour Sorption isotherm was acquired on a DVS-Intrinsic system from SMS. […] Dissolution level of form A1 in Fasted-State Simulated Intestinal Fluid [FaSSIF, pH 6.5] at 37° C. was determined to be approx. 36 μg/mL (after 2 h), and dissolution level of form A1 in Fed-State Simulated Intestinal Fluid [FeSSIF, pH 5.0] at 37° C. was determined to be approx. 214 μg/mL (after 2 h), respectively (see example 11).
All forms were characterized according to standard methods which are found in e.g. Rolf Hilfiker, ‘Polymorphism in the Pharmaceutical Industry’. Wiley-VCH. Weinheim 2006 (Chapter 6: X-Ray Diffraction. Chapter 6: Vibrational Spectroscopy. Chapter 3: Thermal Analysis, Chapter 9: Water Vapour Sorption, and references therein); and H. G. Brittain, ‘Polymorphism in Pharmaceutical Solids. Vol. 95. Marcel Dekker Inc., New York 1999 (Chapter 6 and references therein).

[4] = pH 6.5
[5] = relative humidity range 0-80% rh
[6] = relative humidity range 90-98% rh

SMILES | Thermodynamic solubility FaSSIF pH 6.5 [1] | Thermodynamic solubility FaSSIF pH 6.5 ([1]; listed as Free base form A1) | Thermodynamic solubility PBS buffer 7.4 [1] | Thermodynamic solubility PBS buffer 7.4 ([1]; listed as Free base form A1) | Dissolution levels in FaSSIF pH 6.5 ([2]; 30 min) | Dissolution levels in FaSSIF pH 6.5 ([2]; 60 min) | Dissolution levels in FaSSIF pH 6.5 ([2]; 120 min (2 h)) | Dissolution levels in FaSSIF pH 6.5 ([2]; 120 min (2 h), listed as Free base form Al) | Dissolution levels in FeSSIF pH 5.0 ([2]; 30 min) | Dissolution levels in FeSSIF pH 5.0 ([2]; 60 min) | Dissolution levels in FeSSIF pH 5.0 ([2]; 120 min (2 h)) | Dissolution levels in FeSSIF pH 5.0 ([2]; 120 min (2 h), listed as Free base form A1) | hygroscopicity classification according to Ph. Eur. Criteria (section 5.11.) [3] | water uptake levels [3, 5] | water uptake levels [3, 6] | hygroscopicity classification according to Ph. Eur. Criteria (section 5.11.) ([3]; listed as NF5) | water uptake levels ([3]; relative humidity level of 98% rh) | water uptake levels ([3]; relative humidity range 0-90% rh) | kinetic solubility levels (4 h), factor higher vs form A1 [4] | hygroscopicity classification according to Ph. Eur. Criteria (section 5.11.) ([3]; listed as NF6)
C=CC(=O)N1CCC(CNc2ncnc(N)c2-c2ccc(Oc3ccccc3)cc2)CC1 [form A1, 1-(4-{[6-Amino-5-(4-phenoxy-phenyl)-pyrimidin-4-ylamino]-methyl}-piperidin-1-yl)-propenone] | approx. 21 μg/mL | 21 μg/mL | approx. 14 μg/mL | 14 µg/mL | 25 μg/mL | 33 μg/mL | approx. 36 μg/mL | 36 μg/mL | 190 μg/mL | 205 μg/mL | approx. 214 μg/mL | 214 μg/mL | slightly hygroscopic | ≤ 1 wt % | ≤ 2 wt % |  |  |  |  | 
C=CC(=O)N1CCC(CNc2ncnc(N)c2-c2ccc(Oc3ccccc3)cc2)CC1 [form NF5, 1-(4-{[6-Amino-5-(4-phenoxy-phenyl)-pyrimidin-4-ylamino]-methyl}-piperidin-1-yl)-propenone] |  |  |  |  |  |  |  |  |  |  |  |  | slightly hygroscopic |  |  | Slightly hygroscopic | ≤ 2 wt % | ≤ 1 wt % | ~1.5 | 
C=CC(=O)N1CCC(CNc2ncnc(N)c2-c2ccc(Oc3ccccc3)cc2)CC1 [form NF6, 1-(4-{[6-Amino-5-(4-phenoxy-phenyl)-pyrimidin-4-ylamino]-methyl}-piperidin-1-yl)-propenone] |  |  |  |  |  |  |  |  |  |  |  |  | slightly hygroscopic | ≤ 2 wt % | ≤ 3 wt % |  |  |  | ~3 | Slightly hygroscopic
